≈ marks a conversion by molar mass, not a printed value. Like-named read-outs stand apart in the source and are kept apart here.
Key:
[1] = Thermodynamic solubility (shake flask method); format: physicochemical; conditions: phosphate buffer, aqueous buffer, thermodynamic from solid; PBS pH 7.4, shake flask, room temperature; read-out: Experimental Water Solubility LogS (converted)
Description: The samples were sonicated for 10 min and shaken overnight at 800 rpm (FB15013 TopMix, Fischer Scientific, Waltham, MA, USA) at room temperature. A first phase separation of supernatant and undissolved solid was performed by centrifugation at 5000 rpm for 20 min (Biofuge primo R). The supernatant was then transferred into Eppendorf tubes for a second centrifugation. An adequate dilution was made using the particle-free supernatant and the concentration quantified by LC-HRMS using a 4-point calibration curve (Agilent 1260 Infinity II).
PART A. Calibration curves of compounds for solubility
9e, 10a-e), 4-points calibration curves were made for each compound. Calibrations curves were obtained using four different concentrations of the corresponding compound (0.1 mg/mL, 0.01 mg/mL, 0.001 mg/mL and 0.0001 mg/mL). All samples were prepared in DMSO and measured in a LC-HRMS (Agilent 1260 Infinity II).
Figure S1. Calibration curves of all active compounds (solubility studies) (1, 2, 9a, 9e, 10a-e) […]

MMP-13 = target: T1, MMP-13 (Homo sapiens, UniProt P45452); parameters: method as in PMID 30629065; conditions: cited from earlier work
T1 construct: the catalytic domains of the corresponding MMP were incubated in triplicate; purchased Enzo Life Science International, Inc

MMP-2 = target: T2, MMP-2 (Homo sapiens, UniProt P08253); parameters: method as in PMID 30629065; conditions: cited from earlier work
T2 construct: the catalytic domains of the corresponding MMP were incubated in triplicate; purchased Enzo Life Science International, Inc
T2 sequence (P08253 110-446 limits assumed): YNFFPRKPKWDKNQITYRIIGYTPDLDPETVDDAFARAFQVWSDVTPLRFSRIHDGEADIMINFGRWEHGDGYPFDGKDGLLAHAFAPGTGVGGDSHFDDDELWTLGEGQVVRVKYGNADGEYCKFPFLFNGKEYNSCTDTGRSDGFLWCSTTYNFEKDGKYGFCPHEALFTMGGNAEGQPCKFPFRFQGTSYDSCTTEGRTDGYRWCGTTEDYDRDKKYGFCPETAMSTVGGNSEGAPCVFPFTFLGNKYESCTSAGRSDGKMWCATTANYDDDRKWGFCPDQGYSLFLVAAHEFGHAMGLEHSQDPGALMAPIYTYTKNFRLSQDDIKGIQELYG

MMP-1 = target: T3, MMP-1 (Homo sapiens, UniProt P03956); parameters: method as in PMID 30629065; conditions: panel of MMPs; cited from earlier work
T3 construct: the catalytic domains of the corresponding MMP were incubated in triplicate; purchased Enzo Life Science International, Inc
T3 sequence (P03956 100-269 limits assumed): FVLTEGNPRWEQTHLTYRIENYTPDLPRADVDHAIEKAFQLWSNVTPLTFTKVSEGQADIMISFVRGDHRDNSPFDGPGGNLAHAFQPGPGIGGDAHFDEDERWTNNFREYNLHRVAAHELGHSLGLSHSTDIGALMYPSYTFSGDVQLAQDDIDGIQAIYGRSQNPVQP

MMP-3 = target: T4, MMP-3 (Homo sapiens, UniProt P08254); parameters: method as in PMID 30629065; conditions: panel of MMPs; cited from earlier work
T4 construct: the catalytic domains of the corresponding MMP were incubated in triplicate; purchased Enzo Life Science International, Inc
T4 sequence (P08254 100-272 limits assumed): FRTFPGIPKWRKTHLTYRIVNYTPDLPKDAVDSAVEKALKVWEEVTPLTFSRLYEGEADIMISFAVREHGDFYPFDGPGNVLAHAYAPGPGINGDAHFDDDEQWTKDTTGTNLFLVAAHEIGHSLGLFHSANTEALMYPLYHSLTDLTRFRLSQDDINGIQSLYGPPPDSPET

MMP-7 = target: T5, MMP-7 (Homo sapiens, UniProt P09237); parameters: method as in PMID 30629065; conditions: panel of MMPs; cited from earlier work
T5 construct: the catalytic domains of the corresponding MMP were incubated in triplicate; purchased Enzo Life Science International, Inc
T5 sequence (P09237 95-267): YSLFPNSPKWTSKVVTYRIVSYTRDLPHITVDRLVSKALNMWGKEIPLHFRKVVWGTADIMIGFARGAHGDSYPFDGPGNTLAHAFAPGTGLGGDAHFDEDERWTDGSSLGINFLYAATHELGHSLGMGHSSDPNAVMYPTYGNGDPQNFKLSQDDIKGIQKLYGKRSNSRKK

MMP-8 = target: T6, MMP-8 (Homo sapiens, UniProt P22894); parameters: method as in PMID 30629065; conditions: panel of MMPs; cited from earlier work
T6 construct: the catalytic domains of the corresponding MMP were incubated in triplicate; purchased Enzo Life Science International, Inc
T6 sequence (P22894 100-262 limits assumed): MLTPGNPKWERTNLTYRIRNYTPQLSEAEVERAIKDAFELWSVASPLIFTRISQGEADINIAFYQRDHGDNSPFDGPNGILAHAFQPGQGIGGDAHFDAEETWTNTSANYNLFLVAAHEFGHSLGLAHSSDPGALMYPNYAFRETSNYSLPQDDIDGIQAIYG

MMP-9 = target: T7, MMP-9 (Homo sapiens, UniProt P14780); parameters: method as in PMID 30629065; conditions: panel of MMPs; cited from earlier work
T7 construct: the catalytic domains of the corresponding MMP were incubated in triplicate; purchased Enzo Life Science International, Inc
T7 sequence (P14780 107-444 limits assumed): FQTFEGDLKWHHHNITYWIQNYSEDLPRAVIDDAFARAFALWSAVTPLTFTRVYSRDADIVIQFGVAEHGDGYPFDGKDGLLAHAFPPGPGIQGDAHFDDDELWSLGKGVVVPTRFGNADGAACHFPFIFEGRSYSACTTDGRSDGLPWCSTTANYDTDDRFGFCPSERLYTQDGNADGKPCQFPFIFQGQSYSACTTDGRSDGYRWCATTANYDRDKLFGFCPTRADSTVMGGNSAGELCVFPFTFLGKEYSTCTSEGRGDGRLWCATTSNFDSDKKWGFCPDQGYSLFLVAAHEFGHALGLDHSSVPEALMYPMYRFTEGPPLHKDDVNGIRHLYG

MMP-10 = target: T8, MMP-10 (Homo sapiens, UniProt P09238); parameters: method as in PMID 30629065; conditions: panel of MMPs; cited from earlier work
T8 construct: the catalytic domains of the corresponding MMP were incubated in triplicate; purchased Enzo Life Science International, Inc
T8 sequence (P09238 99-263 limits assumed): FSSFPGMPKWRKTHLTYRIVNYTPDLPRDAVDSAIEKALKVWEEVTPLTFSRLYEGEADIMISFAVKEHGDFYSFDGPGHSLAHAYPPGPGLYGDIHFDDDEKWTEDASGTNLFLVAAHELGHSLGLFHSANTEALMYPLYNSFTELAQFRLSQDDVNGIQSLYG

MMP-12 = target: T9, MMP-12 (Homo sapiens, UniProt P39900); parameters: method as in PMID 30629065; conditions: panel of MMPs; cited from earlier work
T9 construct: the catalytic domains of the corresponding MMP were incubated in triplicate; purchased Enzo Life Science International, Inc
T9 sequence (P39900 106-263 limits assumed): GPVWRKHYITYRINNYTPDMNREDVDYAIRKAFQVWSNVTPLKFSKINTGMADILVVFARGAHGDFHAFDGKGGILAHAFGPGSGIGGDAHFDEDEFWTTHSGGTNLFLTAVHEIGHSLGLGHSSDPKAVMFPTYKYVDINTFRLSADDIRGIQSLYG

MMP-14 = target: T10, MMP-14 (Homo sapiens, UniProt P50281); parameters: method as in PMID 30629065; conditions: panel of MMPs; cited from earlier work
T10 construct: the catalytic domains of the corresponding MMP were incubated in triplicate; purchased Enzo Life Science International, Inc

## O=C(NO)[C@@H](Cc1ccccc1)NS(=O)(=O)c1ccc(-n2cc(CCn3nc4c(Br)c(Br)c(Br)c(Br)c4n3)nn2)cc1 [Compound 1]
[1]
  solubility: 2.88 µM (≈ 2.45 µg/mL)
MMP-13; panel of MMPs, read-out: IC50 MMP-13
  IC50: 3.7 nM
MMP-13; previous work, read-out: MMP-13 IC50
  IC50: 3.7 ± 1.85 nM
MMP-2; panel of MMPs, read-out: IC50 MMP-2
  IC50: 70 nM
MMP-2; previous work, read-out: MMP-2 IC50
  IC50: 70 nM
MMP-1
  IC50: > 1000 nM
MMP-3
  IC50: 500 nM
MMP-7
  IC50: > 1000 nM
MMP-8
  IC50: > 500 nM
MMP-9
  IC50: > 500 nM
MMP-10
  IC50: 434 nM
MMP-12
  IC50: 17.8 nM
MMP-14
  IC50: > 1000 nM

Reference: article PMC8467962, “Design and Synthesis of Water-Soluble and Potent MMP-13 Inhibitors with Activity in Human Osteosarcoma Cells” (International Journal of Molecular Sciences, 2021)
